Data reported in patent US11731986B2 (Sanford Burnham Prebys Medical Discovery Institute, priority 2017, dated 2023).

Target: T1, human LMPTP-A (Homo sapiens, UniProt P24666)
T1 sequence (P24666 1-158): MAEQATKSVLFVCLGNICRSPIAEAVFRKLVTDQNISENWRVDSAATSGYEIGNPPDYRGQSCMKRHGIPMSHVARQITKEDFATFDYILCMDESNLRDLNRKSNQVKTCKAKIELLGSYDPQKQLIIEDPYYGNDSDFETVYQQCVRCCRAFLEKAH
Experiment: Enzyme Assay of Inhibition of LMPTP-A (phosphatase assay, OMFP or pNPP substrate)
Assay type: biochemical
Conditions: Bis-Tris pH 6.0, 37° C.
Procedure: Phosphatase assays were performed in buffer containing 50 mM Bis-Tris, pH 6.0, 1 mM DTT and 0.01% Triton X-100 at 37° C. For assays conducted with 3-O-methylfluorescein phosphate (OMFP) as substrate, fluorescence was monitored continuously at λex=485 and λem=525 nm. For assays conducted with para-nitrophenylphosphate (pNPP) as substrate, the reaction was stopped by addition of 2× reaction volume of 1 M NaOH, and absorbance was measured at 405 nm. IC50 values of compounds of Formula (I), (II), (III), or (IV) were determined from plots of inhibitor concentration versus percentage of enzyme activity. For inhibitor selectivity assays, each PTP was incubated with either 0.4 mM OMFP or 5 mM pNPP in the presence of 40 μM compound or DMSO. […] For the inhibitor reversibility assay, 50 nM human LMPTP-A was pre-incubated with 10 μM of compound of Formula (I), (II), (III), or (IV) or DMSO for 5 min. The enzyme was diluted 100× in phosphatase assay buffer containing 0.4 mM OMFP and fluorescence was measured at the indicated time points.

Row | IC50 [µM] | SMILES
1 | 1 to 20 | CCN(CC)C(=O)c1ccc(-c2cc(NCCCN3CCS(=O)(=O)CC3)c3cnccc3n2)cc1 [4-(4-((3-(1,1-Dioxidothiomorpholino)propyl)amino)-1,6-naphthyridin-2-yl)-N,N-diethylbenzamide]
2 | ≤ 1 | O=C(NCCc1ccncc1)c1ccc(-c2cc(NCCCN3CCCCC3)c3cnccc3n2)cc1 [4-(4-((3-(piperidin-1-yl)propyl)amino)-1,6-naphthyridin-2-yl)-N-(2-(pyridin-4-yl)ethyl)benzamide]
3 | 1 to 20 | O=C(NC1CCNCC1)c1ccc(-c2cc(NCCCN3CCCCC3)c3cnccc3n2)c(C(F)(F)F)c1 [4-(4-((3-(piperidin-1-yl)propyl)amino)-1,6-naphthyridin-2-yl)-N-(piperidin-4-yl)-3-(trifluoromethyl)benzamide]
4 | ≤ 1 | O=C(NC1CCNCC1)c1ccc(-c2cc(NCCCN3CCCCC3)c3cnccc3n2)cc1 [4-(4-((3-(piperidin-1-yl)propyl)amino)-1,6-naphthyridin-2-yl)-N-(piperidin-4-yl)benzamide]
5 | ≤ 1 | O=C(O)c1ccc(-c2cc(NCCCN3CCCCC3)c3cnccc3n2)cc1 [4-(4-((3-(piperidin-1-yl)propyl)amino)-1,6-naphthyridin-2-yl)benzoic acid]
6 | ≥ 20 | CCN(CC)C(=O)c1ccc(-c2cc(NCCCN3CCCCC3)c3cncc(Br)c3n2)cc1 [4-(8-Bromo-4-((3-(piperidin-1-yl)propyl)amino)-1,6-naphthyridin-2-yl)-N,N-diethylbenzamide]
7 | ≥ 20 | CN1CCC(NC(=O)c2ccc(-c3cc(NCCCN4CCCCC4)c4cncc(Br)c4n3)cc2)CC1 [4-(8-Bromo-4-((3-(piperidin-1-yl)propyl)amino)-1,6-naphthyridin-2-yl)-N-(1-methylpiperidin-4-yl)benzamide]
8 | ≥ 20 | Cc1cncc2c(NCCCN3CCCCC3)cc(-c3ccc(C(=O)NC4CCN(C)CC4)cc3)nc12 [4-(8-Methyl-4-((3-(piperidin-1-yl)propyl)amino)-1,6-naphthyridin-2-yl)-N-(1-methylpiperidin-4-yl)benzamide]
9 | ≥ 20 | Cc1cncc2c(NCCCN3CCCCC3)cc(-c3ccc(C(=O)NCCCN4CCCCC4)cc3)nc12 [4-(8-Methyl-4-((3-(piperidin-1-yl)propyl)amino)-1,6-naphthyridin-2-yl)-N-(3-(piperidin-1-yl)propyl)benzamide]
10 | 1 to 20 | N#Cc1c(-c2cc(NCCCN3CCCCC3)c3cnccc3n2)ccc2[nH]c(C(=O)NC3CCNCC3)nc12 [4-cyano-5-(4-((3-(piperidin-1-yl)propyl)amino)-1,6-naphthyridin-2-yl)-N-(piperidin-4-yl)-1H-benzo[d]imidazole-2-carboxamide]
11 | ≤ 1 | O=C(NCCc1ccncc1)c1nc2cc(-c3cc(NCCCN4CCCCC4)c4cnccc4n3)ccc2[nH]1 [5-(4-((3-(piperidin-1-yl)propyl)amino)-1,6-naphthyridin-2-yl)-N-(2-(pyridin-4-yl)ethyl)-1H-benzo[d]imidazole-2-carboxamide]
12 | ≤ 1 | O=C(NC1CCNCC1)c1nc2cc(-c3cc(NCCCN4CCCCC4)c4cnccc4n3)ccc2[nH]1 [5-(4-((3-(piperidin-1-yl)propyl)amino)-1,6-naphthyridin-2-yl)-N-(piperidin-4-yl)-1H-benzo[d]imidazole-2-carboxamide]
13 | ≤ 1 | CCNc1cc(-c2ccc3c(c2)cc(C(=O)NC2CCN(C)CC2)n3C)nc2ccncc12 [5-(4-(ethylamino)-1,6-naphthyridin-2-yl)-1-methyl-N-(1-methylpiperidin-4-yl)-1H-indole-2-carboxamide]
14 | 1 to 20 | CCNc1cc(-c2ccc3[nH]c(C(=O)NCCCN4CCCCC4)nc3c2)nc2ccncc12 [5-(4-(ethylamino)-1,6-naphthyridin-2-yl)-N-(3-(piperidin-1-yl)propyl)-1H-benzo[d]imidazole-2-carboxamide]
15 | 1 to 20 | CNc1cc(-c2ccc3[nH]c(C(=O)NCCCN4CCCCC4)nc3c2)nc2ccncc12 [5-(4-(methylamino)-1,6-naphthyridin-2-yl)-N-(3-(piperidin-1-yl)propyl)-1H-benzo[d]imidazole-2-carboxamide]
16 | ≥ 20 | COc1cc(-c2ccc3c(c2)cc(C(=O)NC2CCN(C)CC2)n3C)nc2ccncc12 [5-(4-methoxy-1,6-naphthyridin-2-yl)-1-methyl-N-(1-methylpiperidin-4-yl)-1H-indole-2-carboxamide]
17 | 1 to 20 | O=C(NC1CCNCC1)c1cc2ccc(-c3cc(NCCCN4CCCCC4)c4cnccc4n3)cc2[nH]1 [6-(4-(3-(Piperidin-1-yl)propylamino)-1,6-naphthyridin-2-yl)-N-(piperidin-4-yl)-1H-indole-2-carboxamide]

Row | IC50 [µM] | SMILES
18 | ≤ 1 | O=C(NC1CCNCC1)c1cc2ccc(-c3cc(NCCCN4CCCCC4)c4cnccc4n3)cc2s1 [6-(4-(3-(piperidin-1-yl)propylamino)-1,6-naphthyridin-2-yl)-N-(piperidin-4-yl)benzo[b]thiophene-2-carboxamide]
19 | ≤ 1 | CN1CCC(Nc2cc(-c3ccc4c(c3)cc(C(=O)N3CCN(C)CC3)n4C)nc3ccncc23)CC1 [(1-Methyl-5-(4-((1-methylpiperidin-4-yl)amino)-1,6-naphthyridin-2-yl)-1H-indol-2-yl)(4-methylpiperazin-1-yl)methanone]
20 | ≤ 1 | CCN1CCN(C(=O)c2nc3cc(-c4cc(NCCCN5CCCCC5)c5cnccc5n4)ccc3n2CC)CC1 [(1-ethyl-5-(4-((3-(piperidin-1-yl)propyl)amino)-1,6-naphthyridin-2-yl)-1H-benzo[d]imidazol-2-yl)(4-ethylpiperazin-1-yl)methanone]
21 | ≤ 1 | CN1CCN(C(=O)c2cc3cc(-c4cc(NCc5ccc(CN6CCCCC6)cc5)c5cnccc5n4)ccc3n2C)CC1 [(1-methyl-5-(4-(4-(piperidin-1-ylmethyl)benzylamino)-1,6-naphthyridin-2-yl)-1H-indol-2-yl)(4-methylpiperazin-1-yl)methanone]
22 | ≤ 1 | CCN1CCN(C(=O)c2cc3ccc(-c4cc(NCCCN5CCCCC5)c5cnccc5n4)cc3[nH]2)CC1 [(4-Ethylpiperazin-1-yl)(6-(4-(3-(piperidin-1-yl)propylamino)-1,6-naphthyridin-2-yl)-1H-indol-2-yl)methanone]
23 | ≤ 1 | CCN1CCN(C(=O)c2nc3cc(-c4cc(NCCCN5CCCCC5)c5cnccc5n4)ccc3[nH]2)CC1 [(4-ethylpiperazin-1-yl)(5-(4-((3-(piperidin-1-yl)propyl)amino)-1,6-naphthyridin-2-yl)-1H-benzo[d]imidazol-2-yl)methanone]
24 | ≥ 20 | CCN1CCN(C(=O)c2nc3cc(-c4cc(Nc5ccc(CN6CCCC6)cc5)c5cnccc5n4)ccc3[nH]2)CC1 [(4-ethylpiperazin-1-yl)(5-(4-((4-(pyrrolidin-1-ylmethyl)phenyl)amino)-1,6-naphthyridin-2-yl)-1H-benzo[d]imidazol-2-yl)methanone]
25 | 1 to 20 | CCN1CCN(C(=O)c2cc3ccc(-c4cc(NCCCN5CCCCC5)c5cnccc5n4)cc3s2)CC1 [(4-ethylpiperazin-1-yl)(6-(4-(3-(piperidin-1-yl)propylamino)-1,6-naphthyridin-2-yl)benzo[b]thiophen-2-yl)methanone]
26 | ≤ 1 | CN1CCN(C(=O)c2cc3ccc(-c4cc(NCCCN5CCCCC5)c5cnccc5n4)cc3s2)CC1 [(4-methylpiperazin-1-yl)(6-(4-(3-(piperidin-1-yl)propylamino)-1,6-naphthyridin-2-yl)benzo[b]thiophen-2-yl)methanone]
27 | 1 to 20 | O=C(O)/C=C/c1ccc(-c2cc(NCCCN3CCCCC3)c3cnccc3n2)s1 [(E)-3-(5-(4-(3-(Piperidin-1-yl)propylamino)-1,6-naphthyridin-2-yl)thiophen-2-yl)acrylic acid]
28 | 1 to 20 | CCN(CC)C(=O)/C=C/c1ccc(-c2cc(Nc3ccc(CN4CCCC4)cc3)c3cnccc3n2)cc1 [(E)-N,N-Diethyl-3-(4-(4-((4-(pyrrolidin-1-ylmethyl)phenyl)amino)-1,6-naphthyridin-2-yl)phenyl)acrylamide]
29 | ≥ 20 | CCN(CC)C(=O)/C=C/c1ccc(-c2cc(NCCCN3CCCCC3)c3cnccc3n2)s1 [(E)-N,N-Diethyl-3-(5-(4-(3-(piperidin-1-yl)propylamino)-1,6-naphthyridin-2-yl)thiophen-2-yl)acrylamide]
30 | 1 to 20 | CCN(CC)C(=O)/C=C/c1ccc(-c2cc(NCCCN3CCCCC3)c3cnccc3n2)o1 [(E)-N,N-Diethyl-3-(5-(4-((3-(piperidin-1-yl)propyl)amino)-1,6-naphthyridin-2-yl)furan-2-yl)acrylamide]
31 | ≤ 1 | CN1CCC(NC(=O)/C=C/c2ccc(-c3cc(NCCCN4CCCCC4)c4cnccc4n3)cc2)CC1 [(E)-N-(1-Methylpiperidin-4-yl)-3-(4-(4-(3-(piperidin-1-yl)propylamino)-1,6-naphthyridin-2-yl)phenyl)acrylamide]
32 | 1 to 20 | CN1CCC(NC(=O)/C=C/c2ccc(-c3cc(NCCCN4CCCCC4)c4cnccc4n3)s2)CC1 [(E)-N-(1-Methylpiperidin-4-yl)-3-(5-(4-(3-(piperidin-1-yl)propylamino)-1,6-naphthyridin-2-yl)thiophen-2-yl)acrylamide]
33 | ≥ 20 | CN1CCC(NC(=O)/C=C/c2ccc(-c3cc(NCCCN4CCCCC4)c4cnccc4n3)o2)CC1 [(E)-N-(1-Methylpiperidin-4-yl)-3-(5-(4-((3-(piperidin-1-yl)propyl)amino)-1,6-naphthyridin-2-yl)furan-2-yl)acrylamide]
